Measured values as given in patent US11352358B2, “FXR agonist” (XUANZHU BIOPHARMACEUTICAL CO., LTD., priority 2017, dated 2022).

What was measured:
BSEP mRNA in HepG2 cells = assay: Relative expression of BSEP mRNA in HepG2 cells, EC50 (Experimental Example 3); type: cell-based; conditions: Homo sapiens, 24 hrs
Protocol: (§1) compounds of the present invention (for their chemical names and preparation methods, see the preparation example for each compound).
(§2) HepG2 cell: human liver cancer cell;
BSEP: bile salt export pump;
(§3) Control: compound 1-1B with a structure shown as follows, prepared according to a prior art method (for detailed information, see patent application WO2012087519A1).
(§4) Cells were digested with pancreatin and collected, and the concentration of the cells was determined; according to the counting result, the cells were resuspended to a density of 7.5×10^5 cells/mL; 2 mL of the cell suspension was inoculated in each well of a 6-well cell culture plate; and the culture plate was placed in an incubator and cultured under the conditions of 37° C. and 5% CO2 for 24 hrs.
(§5) The compounds were diluted to 3000, 1000, 200, 8, 1.6, 0.32, 0.0128, 0.00256 and 0.000512 μM with DMSO. Compound solutions of different concentrations obtained in the previous step were further diluted by 1,000 times with media to obtain working solutions, and a medium containing 0.1% of DMSO was adopted as a control group. The cell culture plate was taken out from the incubator, the medium was removed, and the working solutions and the control medium were added. The culture plate was placed back into the incubator and cultured under the conditions of 37° C. and 5% CO2 for 24 hrs. […]

SHP mRNA in HepG2 cells = assay: Relative expression of SHP mRNA in HepG2 cells, EC50 (Experimental Example 3); type: cell-based; conditions: Homo sapiens, 24 hrs
Protocol: as §1, §2
SHP: small heterodimer partner;
as §3, §4, §5

SHP mRNA in AML12 cells = assay: Relative expression of SHP mRNA in AML12 cells, EC50 (Experimental Example 4); type: cell-based; conditions: Mus musculus, 24 hrs
Protocol: as §1
AML12 cells: mouse liver cells.
as §3
as §4, with “of 7.5×10^4” for “of 7.5×10^5”, “cells/mL; 1” for “cells/mL; 2”, “a 12-well” for “a 6-well”
The compound were diluted to 1000, 200, 8, 1.6, 0.32, 0.128, 0.0256 and 0.00512 μM with DMSO. Compound solutions of different concentrations obtained in the previous step were further diluted by 1000 times with media to obtain working solutions, and a medium containing 0.1% of DMSO was adopted as a control group. The cell culture plate was taken out from the incubator, the medium was removed, and the working solutions and the control medium were added. The culture plate was placed back into the incubator and cultured under the conditions of 37° C. and 5% CO2 for 24 hrs.
after treatment for 24 hrs, the cell culture plate was taken out from the incubator, and the medium was removed from the plate; the cells were rinsed three times with pre-cooled (4° C.) PBS (phosphate buffer solution); and 200 μL of pancreatin (preheated to 37° C.) was added to each well, and the plate was then gently shaken such that the pancreatin could evenly cover the plate bottom. The culture plate was then placed back into the incubator and incubated until the cells were separated from the plate bottom. 1 mL of medium was added to terminate digestion. […]

[1] = Liver microsome metabolism stability, human liver microsome; type: in vitro ADME; conditions: 0.5 mg protein/mL, test sample 1 μM, β-NADPH
Protocol: (§6) Test samples: the homemade compounds 1, 2, 4 and 5 of the present invention (for their chemical names and preparation methods, see the preparation example for each compound).
(§7) a mixed liver microsomes of SD rat and human both purchased from XenoTech, with batch Nos.: 1410271 (SD rat) and 1410013 (human) respectively, wherein the microsomal protein concentrations both were 20 mg mL^−1;
(§8) experimental promoter β-NADPH purchased from Roche (batch No.: 524F0231); and a phosphate buffer solution (pH 7.4) made in the lab.
(§9) An appropriate amount of the test sample powder was weighed accurately, and dissolved in an appropriate amount of dimethyl sulfoxide (DMSO) to a concentration of 1 mM; and the solution was then diluted by 20 times with methanol to yield a 50 μM working solution.
(§10) (1) According to the proportions in table 3 “Composition of the incubation system for liver microsome metabolism stability experiment” above, for each compound, 6 mL of PBS (100 mM), 0.6 mL of MgCl2 solution (20 mM) and 3.66 mL of H2O were made into a mixed solution 1 for the incubation system (not containing the microsomes, the test sample and β-NADPH).
(§11) (2) Liver microsomes (20 mg protein/mL) were taken from a refrigerator (−80° C.), and were placed on a thermostatic water bath oscillator (37° C.) and pre-incubated for 3 mins.
(§12) (3) For each compound, 1.88 mL of the mixed solution 1 for the incubation system was added with 55 μL of microsomes to obtain a mixed solution 2 for the incubation system (not containing the test sample and β-NADPH).
(§13) (4) Sample group (containing the microsomes and D-NADPH): 616 μL of mixed solution 2 for the incubation system was added with 14 μL of the test sample working solution (with a concentration of 50 μM), and with 70 μL of R-NADPH working solution (10 mM). The resulted solution was well mixed, and the resulted solution was then duplicated. The time points of sampling were at 0 min, 5th min, 10th min, 20th min, 30th min and 60th min.
(§14) (5) Control group (containing the microsomes, and water instead of D-NADPH): 264 μL of mixed solution 2 for the incubation system was added with 6 μL of the test sample working solution (50 μM), and with 30 μL of water. The resulted solution was well mixed, and the resulted solution was then duplicated. The time points of sampling were at 0 min and 60th min.
(§15) (6) 50 μL of sample was taken from an incubating sample tube at each predetermined time point, added to a terminating sample tube (containing 300 μL of cold terminator), and vortexed; and the reaction was terminated.
(§16) (7) after 10 mins of vortexing, the solution was centrifuged for 5 mins (12,000 rpm).
(§17) (8) 100 μL of supernatant was taken and added with 100 μL of water, and the mixture solution was thoroughly vortexed; and the solution was then analyzed by LC-MS/MS.
(§18) Percentages of residual contents were calculated according to the following formula.

[2] = system: CYP7A1 mRNA in HepG2 cells; assay: Relative expression of CYP7A1 mRNA in HepG2 cells, IC50 (Experimental Example 3); type: cell-based; conditions: Homo sapiens, 24 hrs
Protocol: as §1, §2
CYP7A1: cholesterol 7-alpha hydroxylase;
as §3, §4, §5

[3] = Liver microsome metabolism stability, rat liver microsome; type: in vitro ADME, SD rat; conditions: 0.5 mg protein/mL, test sample 1 μM, β-NADPH
Protocol: as §6, §7, §8, §9, §10, §11, §12, §13, §14, §15, §16, §17, §18

EC50 (SHP mRNA in HepG2 cells): 0.09 nM | EC50 (SHP mRNA in AML12 cells): 0.89 nM | Residual content (%) after 60 minutes of incubation [1]: 96% | IC50 [2]: 0.02 nM | Residual content (%) after 60 minutes of incubation [3]: 73%
SMILES: O=C(O)c1cc(F)c2nc(N3C[C@@H]4C[C@H]3C[C@H]4OCc3c(-c4ccccc4OC(F)(F)F)noc3C3CC3)sc2c1 [Compound 8, 2-((1S, 4S, 5R)-5-((5-cyclopropyl-3-(2-(trifluoromethoxy)phenyl)isoxazol-4-yl)methoxy)-2-azabicyclo[2.2.1]heptan-2-yl)-4-fluorobenzo[d]thiazole-6-formic acid]
EC50 (BSEP mRNA in HepG2 cells): 0.35 nM
